Laboratory results as given in patent US7115620B2, “1,3-disubstituted-2-thioxo-imidazolidine-4,5-diones as potassium channel openers” (Wyeth, priority 2001, dated 2006).

Legend:
[1] = tested on: isolated rat bladder strips; experiment: Inhibition of contractions in isolated rat bladder strips; conditions: 15 mM KCl-enhanced contractile activity; for IC50: 0.5 h, 30 minute challenge; for inhibition at 30 µM: read-out: % Inhibition @ 30 μM (maximum percentage inhibition of contractile activity)
Description: Sprague-Dawley rats (150–200 g) were rendered unconscious by CO2 asphyxiation and then euthanized by cervical dislocation. The bladder was removed into warm (37 deg.C.) physiological salt solution (PSS) of the following composition (mM): NaCl, 118.4; KCl, 4.7; CaCl2, 2.5; […]; NaHCO3, 24.9; KH2PO4, 1.2; glucose, 11.1; EDTA, 0.023; gassed with 95% O2; […]; pH 7.4. The bladder was opened and then cut into strips 1–2 mm in width and 7–10 mm in length. The strips are subsequently suspended in a 10 mL tissue bath under an initial resting tension of 1.5 g. The strips were held in place by two surgical clips one of which is attached to a fixed hook while the other is attached to an isometric force transducer. […] The carbachol was then washed out and the tissue allowed to relax to its resting level of activity. Following a further 30 minute period of recovery an additional 15 mM KCl were introduced into the tissue bath. […] Following stabilization of this enhanced level of contractile activity, incremental increases in the concentration of test compound or vehicle were introduced into the tissue bath. Contractile activity was measured for each compound or vehicle concentration during the last minute of a 30 minute challenge.
The isometric force developed by the bladder strips was measured using a […] to elicit 50% inhibition of pre-drug contractile activity (IC50 concentration) and was calculated from this concentration-response curve.

SMILES	melting point [°C]	IC50 [1] [µM]	inhibition at 30 µM [1] [%]
CC(N1C(=O)C(=O)N(c2ccc(C#N)cc2)C1=S)C(C)(C)C (racemic) [Example 1, 4-[4,5-Dioxo-2-thioxo-3-(1,2,2-trimethyl-propyl)-imidazolidin-1-yl]-benzonitrile]	219.6 to 219.9	3.3 ± 0.08	–
CC(C)(C)CN1C(=O)C(=O)N(c2ccc(C#N)cc2)C1=S [Example 2, 4-[3-(2,2-Dimethyl-propyl)-4,5-dioxo-2-thioxo-imidazolidin-1-yl]-benzonitrile]	128 to 129	3.4 ± 0.8	–
CCC(C)(C)N1C(=O)C(=O)N(c2ccc(C#N)cc2)C1=S [Example 3, 4-[3-(1,1-Dimethyl-propyl)-4,5-dioxo-2-thioxo-imidazolidin-1-yl]-benzonitrile]	173.1 to 174.3	25.7 ± 3.7	–
CC(C)(C)N1C(=O)C(=O)N(c2ccc(C#N)cc2)C1=S [Example 4, 4-(3-tert-Butyl-4,5-dioxo-2-thioxo-imidazolidin-1-yl)-benzonitrile]	200.4 to 201.3	30 ± 5	–
CCc1cc(C#N)ccc1N1C(=O)C(=O)N(C(C)(C)CC)C1=S [Example 5, 4-[3-(1,1-Dimethyl-propyl)-4,5-dioxo-2-thioxo-imidazolidin-1-yl]-3-ethyl-benzonitrile]	172.8 to 173.3	28.9 ± 2.6	–
C[C@@H](N1C(=O)C(=O)N(c2ccc(C#N)cc2)C1=S)C(C)(C)C [Example 6, 4-[4,5-Dioxo-2-thioxo-3-((1R)-1,2,2-trimethyl-propyl)-imidazolidin-1-yl]-benzonitrile]	197.6 to 197.8	4.2 ± 1.4	–
CC(N1C(=O)C(=O)N(c2cccc(C#N)c2)C1=S)C(C)(C)C (stereo not shown) [Example 7, 3-[4,5-Dioxo-2-thioxo-3-(1,2,2-trimethyl-propyl)-imidazolidin-1-yl]-benzonitrile]	168.1 to 168.7	–	29.2
CC(N1C(=O)C(=O)N(c2ccc(Br)cc2)C1=S)C(C)(C)C (stereo not shown) [Example 8, 1-(4-Bromo-phenyl)-2-thioxo-3-(1,2,2-trimethyl-propyl)-imidazolidine-4,5-dione]	207.1 to 207.9	27.2	22.4
CN(C)c1ccc(N2C(=O)C(=O)N(CC(C)(C)C)C2=S)cc1.Cl [Example 9, 1-(4-Dimethylamino-phenyl)-3-(2,2-dimethyl-propyl)-2-thioxo-imidazolidine-4,5-dione Hydrochloride]	244 to 246	–	33.2
CC(N1C(=O)C(=O)N(c2ccc(F)cc2F)C1=S)C(C)(C)C (stereo not shown) [Example 10, 1-(2,4-Difluoro-phenyl)-2-thioxo-3-(1,2,2-trimethyl-propyl)-imidazolidine-4,5-dione]	155.2 to 156	–	23.1
CC(C)(C)CN1C(=O)C(=O)N(c2ccc(F)cc2F)C1=S [Example 11, 1-(2,4-Difluoro-phenyl)-3-(2,2-dimethyl-propyl)-2-thioxo-imidazolidine-4,5-dione]	156.2 to 156.9	–	30.6
CC(N1C(=O)C(=O)N(c2ccc(Cl)cc2)C1=S)C(C)(C)C (stereo not shown) [Example 12, 1-(4-Chloro-phenyl)-2-thioxo-3-(1,2,2-trimethyl-propyl)-imidazolidine-4,5-dione]	198.8 to 199.5	–	24.3
CC(N1C(=O)C(=O)N(c2ccc(C(C)(C)C)cc2)C1=S)C(C)(C)C (stereo not shown) [Example 13, 1-(4-tert-Butyl-phenyl)-2-thioxo-3-(1,2,2-trimethyl-propyl)-imidazolidine-4,5-dione]	208.9 to 209.5	–	18.3
CC(C)(C)CN1C(=O)C(=O)N(c2ccc(F)cc2)C1=S [Example 14, 1-(2,2-Dimethyl-propyl)-3-(4-fluoro-phenyl)-2-thioxo-imidazolidine-4,5-dione]	165.2 to 166.3	–	15
CC(C)(C)CN1C(=O)C(=O)N(c2cccnc2)C1=S [Example 15, 1-(2,2-Dimethyl-propyl)-3-pyridin-3-yl-2-thioxo-imidazolidine-4,5-dione]	111.4 to 112.8	3.6 ± 0.8	–
